Source: ChEMBL document CHEMBL1201862, “PubChem BioAssay data set” (2004)
The source made the active and inactive calls.

Assays:
[1] = M. tuberculosis growth inhibition, HTS (AID 449762); format: functional
[2] = viability of uninfected HEp-2 cells – cell-based, HTS, cytotoxicity control for RSV inhibitor project, dose response (AID 2410); format: functional; details: human respiratory syncytial virus
[3] = microbe, parasite or virus in culture; format: functional; details: Mycobacterium tuberculosis
[4] = OV-90 cell viability loss – plate reader, dry powder, SA8, PAX8 inhibitor project, dose response (AID 743149); format: functional, cell-based
[5] = inhibitors acting on PAX2 in cells – cell-based, plate reader, dry powder samples, selectivity assay for PAX8 inhibitor project, dose response (AID 743048); format: functional;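 note: HEK293 cells carrying a WT1 promoter luciferase reporter driven by expressed Pax2; potency is for inhibition of Pax2 driven reporter signal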
[6] = OVCAR-3 cell viability loss – plate reader, dry powder samples, PAX8 inhibitor project, dose response (AID 743044); format: functional, cell-based
[7] = COV434 cell viability loss – plate reader, dry powder, SA7, cytotoxicity control for PAX8 inhibitor project, dose response (AID 743145); format: functional, cell-based
Paired box protein Pax-8 = Paired box protein Pax-8 (Homo sapiens, UniProt Q06710); assay: PAX8 transcriptional activity inhibition in RMG-I – RMG-I cells, luciferase, cherry-pick, dose response (AID 687027); format: functional, cell-based;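 note: luciferase reporter driven by Pax8 target thyroperoxidase promoter measured by SteadyGlo luminescence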
[8] = PAX5 cellular inhibition readout – cell-based, plate reader, dry powder samples, selectivity assay for PAX8 inhibitor project, dose response (AID 743047); format: functional;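 note: HEK293 cells carrying a Pax5 driven CD19 promoter luciferase reporter; potency of inhibitors that lower reporter luminescence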
[9] = PAX8-dependent cell viability loss – plate reader, dry powder, dose response (AID 743049); format: functional, cell-based
[10] = COV362 cell viability loss – plate reader, dry powder, SA12, cytotoxicity control for PAX8 inhibitor project, dose response (AID 743144); format: functional, cell-based
[11] = OVCAR4 cell viability loss – plate reader, dry powder, SA11, cytotoxicity control for PAX8 inhibitor project, dose response (AID 743150); format: functional, cell-based; details: OVCAR-4
[12] = viability loss in THP-1 monocytes – THP-1 cells, cytotoxicity control for Vif-APOBEC3G degradation inhibitor project, dose response (AID 1117359); format: functional; details: THP-1
HeLa = assay: viability loss in HeLa cells – cell-based, ATP luminescence, cherry-pick samples, cytotoxicity control, dose response (AID 687004); format: functional; details: Homo sapiens
[13] = HEK293 Cytotoxicity Assay Measured in Cell-Based System Using Plate Reader - 7071-01_Inhibitor_Dose_CherryPick_Activity_Set2.; format: functional
HEK293 = assay: viability loss in HEK293T cells – cell-based, ATP luminescence, cherry-pick samples, cytotoxicity control, dose response (AID 687005); format: functional; details: Homo sapiens;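 note: cells exposed to compound for 48 hours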
[14] = suppression of HIF-dependent reporter luminescence – cell-based, dry powder samples, 2158-07, ARNT-TACC3 inhibitor project, dose response (AID 720561); format: functional
[15] = hypoxia HIF reporter signal reduction – HeLa cells, luminescence, dry powder samples, 2158-08, ARNT-TACC3 inhibitor project, dose response (AID 720560); format: functional, cell-based
Fibrinogen beta chain [16] = molecular target: T1, Fibrinogen beta chain (Homo sapiens, UniProt P02675); assay: Fluorescence polarization-based biochemical high throughput dose response assay to identify inhibitors that disrupt the binding of a cyclic peptide (Tn7) to the fibrin proteolytic product D-Dimer and fragment E complex [DD(E )].
[17] = molecular target: T2, Aryl hydrocarbon receptor (Homo sapiens, UniProt P35869); assay: Luminescence-based cell-based high throughput dose response assay for activators of the Aryl Hydrocarbon Receptor (AHR). [Related pubchem assays: 2796 (Primary screen (AHR activators in singlicate)), 2845 (Confirmation screen (AHR activators in triplicate)), 434939 (Counterscreen (PXR activators in triplicate)), 2804 (Summary (AHR activators))]; format: ADME
T2 sequence (P35869 whole entry): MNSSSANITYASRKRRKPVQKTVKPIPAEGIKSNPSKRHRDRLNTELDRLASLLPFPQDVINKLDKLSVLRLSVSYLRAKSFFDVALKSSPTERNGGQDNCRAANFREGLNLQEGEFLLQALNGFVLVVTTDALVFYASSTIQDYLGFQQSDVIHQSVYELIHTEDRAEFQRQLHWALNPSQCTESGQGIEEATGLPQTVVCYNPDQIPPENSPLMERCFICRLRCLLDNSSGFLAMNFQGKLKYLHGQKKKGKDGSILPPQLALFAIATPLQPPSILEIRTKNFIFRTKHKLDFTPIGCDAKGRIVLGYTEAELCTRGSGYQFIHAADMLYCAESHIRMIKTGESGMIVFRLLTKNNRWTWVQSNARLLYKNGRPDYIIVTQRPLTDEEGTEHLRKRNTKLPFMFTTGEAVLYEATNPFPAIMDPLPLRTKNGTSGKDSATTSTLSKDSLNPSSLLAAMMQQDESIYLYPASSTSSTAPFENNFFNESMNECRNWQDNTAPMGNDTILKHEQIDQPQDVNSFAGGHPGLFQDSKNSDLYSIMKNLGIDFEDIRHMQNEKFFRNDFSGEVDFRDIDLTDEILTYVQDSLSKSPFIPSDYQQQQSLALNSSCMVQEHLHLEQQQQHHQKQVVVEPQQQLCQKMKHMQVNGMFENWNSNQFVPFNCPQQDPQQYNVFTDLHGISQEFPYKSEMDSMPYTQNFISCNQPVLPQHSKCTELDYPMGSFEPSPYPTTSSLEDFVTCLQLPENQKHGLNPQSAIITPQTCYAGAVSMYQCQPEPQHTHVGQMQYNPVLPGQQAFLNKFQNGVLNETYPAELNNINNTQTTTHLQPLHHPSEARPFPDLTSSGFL

Fibrinogen beta chain [18] = molecular target: T1, Fibrinogen beta chain; assay: Fluorescence polarization-based biochemical high throughput dose response assay to identify inhibitors that disrupt the binding of a cyclic peptide (Tn6) to the fibrin proteolytic product D-Dimer and fragment E complex [DD(E )].
[19] = Plasmodium falciparum Dd2 Sybr green parasite growth Measured in Cell-Based and Microorganism Combination System Using Plate Reader - 2153-01_Inhibitor_Dose_DryPowder_Activity_Set3.; format: functional
Phospholipase D1 = Phospholipase D1 (Homo sapiens, UniProt Q13393); assay: PLD1 Cellular Concentration Response Study.; format: functional
Phospholipase D2 = Phospholipase D2 (Homo sapiens, UniProt O14939); assay: PLD2 Cellular Concentration Response Study.; format: functional
Sequence of Phospholipase D2 (O14939 whole entry): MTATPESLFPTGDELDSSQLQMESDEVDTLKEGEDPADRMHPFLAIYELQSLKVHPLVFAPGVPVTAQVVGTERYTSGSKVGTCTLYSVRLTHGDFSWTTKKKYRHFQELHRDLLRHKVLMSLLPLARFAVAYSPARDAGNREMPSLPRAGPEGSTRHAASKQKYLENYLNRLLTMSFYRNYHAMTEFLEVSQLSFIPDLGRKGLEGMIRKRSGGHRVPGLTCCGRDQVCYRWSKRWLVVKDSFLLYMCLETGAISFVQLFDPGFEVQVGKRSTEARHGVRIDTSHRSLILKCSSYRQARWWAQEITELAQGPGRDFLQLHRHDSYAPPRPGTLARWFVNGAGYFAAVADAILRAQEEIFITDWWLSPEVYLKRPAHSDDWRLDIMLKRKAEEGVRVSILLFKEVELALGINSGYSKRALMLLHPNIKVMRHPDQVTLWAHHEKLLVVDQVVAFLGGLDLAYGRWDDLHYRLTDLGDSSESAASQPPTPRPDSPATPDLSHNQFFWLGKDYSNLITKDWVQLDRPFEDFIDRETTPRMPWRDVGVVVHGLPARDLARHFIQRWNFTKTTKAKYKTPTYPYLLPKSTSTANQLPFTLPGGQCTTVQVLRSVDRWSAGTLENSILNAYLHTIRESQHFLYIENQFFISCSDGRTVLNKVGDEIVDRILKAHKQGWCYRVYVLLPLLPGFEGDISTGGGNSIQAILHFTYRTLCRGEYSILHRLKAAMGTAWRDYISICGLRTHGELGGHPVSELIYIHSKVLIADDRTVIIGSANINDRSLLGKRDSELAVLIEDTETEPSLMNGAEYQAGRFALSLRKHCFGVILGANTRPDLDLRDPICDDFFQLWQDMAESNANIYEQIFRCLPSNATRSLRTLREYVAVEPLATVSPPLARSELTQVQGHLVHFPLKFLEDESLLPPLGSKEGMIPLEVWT

T1 sequence (P02675 whole entry, the tested form may be a part): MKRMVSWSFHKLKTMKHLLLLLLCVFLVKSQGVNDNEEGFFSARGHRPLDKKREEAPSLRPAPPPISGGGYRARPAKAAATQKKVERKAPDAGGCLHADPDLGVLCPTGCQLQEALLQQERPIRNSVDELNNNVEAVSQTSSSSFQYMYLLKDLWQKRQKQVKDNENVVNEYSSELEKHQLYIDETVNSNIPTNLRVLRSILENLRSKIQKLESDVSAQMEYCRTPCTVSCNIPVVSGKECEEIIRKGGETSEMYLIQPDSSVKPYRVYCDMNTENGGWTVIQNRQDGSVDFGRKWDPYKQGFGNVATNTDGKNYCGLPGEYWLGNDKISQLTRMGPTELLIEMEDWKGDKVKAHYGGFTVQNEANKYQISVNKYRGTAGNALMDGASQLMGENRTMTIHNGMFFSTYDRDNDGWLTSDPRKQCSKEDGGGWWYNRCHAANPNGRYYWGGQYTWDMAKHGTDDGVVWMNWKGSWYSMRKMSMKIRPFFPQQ
Sequence of Phospholipase D1 (Q13393 whole entry): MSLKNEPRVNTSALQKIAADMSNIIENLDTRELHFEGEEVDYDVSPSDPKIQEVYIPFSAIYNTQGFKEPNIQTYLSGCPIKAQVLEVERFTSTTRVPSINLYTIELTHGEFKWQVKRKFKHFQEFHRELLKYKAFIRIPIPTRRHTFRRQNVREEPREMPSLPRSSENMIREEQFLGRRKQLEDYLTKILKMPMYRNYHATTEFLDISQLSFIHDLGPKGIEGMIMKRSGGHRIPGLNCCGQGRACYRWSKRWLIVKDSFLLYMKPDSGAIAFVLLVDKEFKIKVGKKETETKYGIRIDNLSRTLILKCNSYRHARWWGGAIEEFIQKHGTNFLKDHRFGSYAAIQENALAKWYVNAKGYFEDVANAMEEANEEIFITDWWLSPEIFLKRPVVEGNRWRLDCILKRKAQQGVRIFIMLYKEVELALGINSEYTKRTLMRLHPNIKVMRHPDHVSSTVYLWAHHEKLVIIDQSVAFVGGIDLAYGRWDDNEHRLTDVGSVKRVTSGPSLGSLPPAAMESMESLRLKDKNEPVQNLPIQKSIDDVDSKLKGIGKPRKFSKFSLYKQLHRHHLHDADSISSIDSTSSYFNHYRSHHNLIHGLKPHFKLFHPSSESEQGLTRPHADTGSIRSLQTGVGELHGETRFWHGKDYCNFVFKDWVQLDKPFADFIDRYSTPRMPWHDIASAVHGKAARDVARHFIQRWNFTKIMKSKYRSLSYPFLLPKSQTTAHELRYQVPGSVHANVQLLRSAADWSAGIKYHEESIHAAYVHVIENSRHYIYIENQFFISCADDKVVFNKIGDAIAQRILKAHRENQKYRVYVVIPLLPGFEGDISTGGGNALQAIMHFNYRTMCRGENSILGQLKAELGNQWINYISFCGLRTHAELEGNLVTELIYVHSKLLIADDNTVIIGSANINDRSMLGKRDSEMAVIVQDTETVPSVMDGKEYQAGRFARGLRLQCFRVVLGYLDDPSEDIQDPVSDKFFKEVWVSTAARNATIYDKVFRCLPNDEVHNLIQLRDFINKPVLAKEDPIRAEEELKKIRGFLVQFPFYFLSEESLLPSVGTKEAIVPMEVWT
Sequence of Paired box protein Pax-8 (Q06710 whole entry): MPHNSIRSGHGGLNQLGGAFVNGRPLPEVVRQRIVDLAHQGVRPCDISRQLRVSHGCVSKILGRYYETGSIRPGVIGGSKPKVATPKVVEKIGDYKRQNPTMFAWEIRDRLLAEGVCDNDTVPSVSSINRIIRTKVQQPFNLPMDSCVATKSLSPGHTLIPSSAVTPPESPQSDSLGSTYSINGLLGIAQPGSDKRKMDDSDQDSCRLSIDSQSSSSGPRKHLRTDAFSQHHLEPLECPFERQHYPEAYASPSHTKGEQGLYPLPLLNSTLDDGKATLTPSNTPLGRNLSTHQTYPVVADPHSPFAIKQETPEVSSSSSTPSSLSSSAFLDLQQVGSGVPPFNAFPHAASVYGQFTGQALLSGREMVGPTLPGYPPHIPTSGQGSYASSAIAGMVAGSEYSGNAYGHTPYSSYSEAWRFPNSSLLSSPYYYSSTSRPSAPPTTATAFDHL

COC(=O)C1=C(C)NC(=O)/C1=C\c1cc(C)n(-c2cccc(C)c2)c1C
IC50 [1]: > 100 µM (active) | CC50 [2]: 16 µM (active) | CC50 [3]: > 40 µM (active)

CC(C)CC1NC(=S)N(Cc2ccccc2)C1=O (centres undefined)
AC50 [4]: 21.4 µM (active) | AC50 [5]: 29.2 µM (active) | AC50 [6]: 94 µM (active) | AC50 [7]: 18.8 µM (active) | AC50 (Paired box protein Pax-8): 6.46 µM (active) | AC50 [8]: 43 µM (active) | AC50 [9]: 46.8 µM (active) | AC50 [10]: 33.9 µM (active) | AC50 [11]: 15.9 µM (active)

CCCCCC(=O)N1C[C@@H](n2cc(C3CC3)nn2)[C@H](O)C[C@@H]1c1ccc(C)cc1
CC50 [12]: > 40 µM (active)

C[C@@H]1CN([C@@H](C)CO)S(=O)(=O)c2ccc(C#CC3CC3)cc2O[C@H]1CN(C)CC1CCOCC1
AC50 (HeLa): > 52 µM (inactive) | AC50 [13]: 31.7 µM (active) | AC50 (HEK293): 31.7 µM (active)

CC(C)CNc1ccnc(NCc2csc(-c3ccccc3)n2)n1
AC50 [14]: 5.54 µM (active) | AC50 [15]: 4.74 µM (active)

C#CCn1cc(/C=N/NC(=O)c2cc3ccccc3o2)c2ccccc21
IC50 (Fibrinogen beta chain [16]): > 83.3 µM (inactive) | EC50 [17]: 0.544 µM (active) | IC50 (Fibrinogen beta chain [18]): > 83.3 µM (inactive)

Cc1noc(C)c1NC(=O)Nc1ccc2c(c1)C(=O)N([C@@H](C)CN(C)C)C[C@@H](C)[C@H](CN(C)S(=O)(=O)c1ccc(F)cc1)OCCCC[C@H](C)O2
AC50 [19]: 0.0289 µM (active)

O=C(NCCN1CCC2(CC1)C(=O)NCN2C(=O)C1CCC1)c1ccc2ccccc2c1
IC50 (Phospholipase D1): 4 µM (active) | IC50 (Phospholipase D2): 0.32 µM (active)
